Assays:
Format in all cases: biochemical
[1] = target: T1, S. pombe Lumazine Synthase (Schizosaccharomyces pombe, UniProt Q9UUB1); experiment: Lumazine synthase kinetic inhibition assay; conditions: recombinant S. pombe LS; for kcat (rate constant ES → E + P): fit of the compound's data set; for kcat (rate constant ES → E + P) / Kis (inhibitor dissociation constant, ES + I ⇌ ESI): pH 7.0; for Kis (inhibitor dissociation constant, ES + I ⇌ ESI): substrate 1 varied, 2 constant
T1 sequence (Q9UUB1 1-159): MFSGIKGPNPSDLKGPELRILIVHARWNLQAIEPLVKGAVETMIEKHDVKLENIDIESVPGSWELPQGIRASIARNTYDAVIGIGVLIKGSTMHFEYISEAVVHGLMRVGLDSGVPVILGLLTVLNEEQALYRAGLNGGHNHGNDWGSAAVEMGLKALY

[2] = target: M. tuberculosis Lumazine Synthase (Mycobacterium tuberculosis, UniProt P9WHE9); conditions: recombinant M. tuberculosis LS; for kcat (rate constant ES → E + P): fit of the compound's data set; for kcat (rate constant ES → E + P) / Kis (inhibitor dissociation constant, ES + I ⇌ ESI): pH 7.0; for Kis (inhibitor dissociation constant, ES + I ⇌ ESI): substrate 1 varied, 2 constant
M. tuberculosis Lumazine Synthase, sequence (P9WHE9 whole entry): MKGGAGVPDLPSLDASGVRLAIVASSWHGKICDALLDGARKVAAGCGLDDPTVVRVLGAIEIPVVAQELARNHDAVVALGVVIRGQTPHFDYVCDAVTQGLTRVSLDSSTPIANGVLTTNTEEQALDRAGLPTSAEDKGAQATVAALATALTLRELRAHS

[3] = target: E. coli Riboflavin Synthase (Escherichia coli, UniProt P0AFU8); experiment: Riboflavin synthase kinetic inhibition assay; conditions: recombinant E. coli RS; for kcat (rate constant ES → E + P): fit of the compound's data set; for kcat (rate constant ES → E + P) / Kis (inhibitor dissociation constant, ES + I ⇌ ESI): pH 7.0
E. coli Riboflavin Synthase, sequence (P0AFU8 whole entry): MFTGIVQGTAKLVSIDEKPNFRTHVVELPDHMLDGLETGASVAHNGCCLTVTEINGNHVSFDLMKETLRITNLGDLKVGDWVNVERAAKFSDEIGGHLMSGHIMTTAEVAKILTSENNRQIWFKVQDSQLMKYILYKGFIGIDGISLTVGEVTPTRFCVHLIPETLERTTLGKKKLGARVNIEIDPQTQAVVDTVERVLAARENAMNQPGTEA

[4] = target: M. tuberculosis Riboflavin Synthase (Mycobacterium tuberculosis, UniProt P9WK35); experiment: Riboflavin synthase kinetic inhibition assay; conditions: recombinant M. tuberculosis RS; for kcat (rate constant ES → E + P): fit of the compound's data set; for kcat (rate constant ES → E + P) / Kis (inhibitor dissociation constant, ES + I ⇌ ESI): pH 7.0
M. tuberculosis Riboflavin Synthase, sequence (P9WK35 whole entry): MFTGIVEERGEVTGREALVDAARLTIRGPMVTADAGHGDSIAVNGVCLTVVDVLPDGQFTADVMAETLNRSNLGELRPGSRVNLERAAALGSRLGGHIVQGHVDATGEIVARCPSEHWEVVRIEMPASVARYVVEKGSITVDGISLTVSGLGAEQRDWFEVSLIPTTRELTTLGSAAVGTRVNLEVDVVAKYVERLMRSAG

Compound | Inhibitory activity in words [1] | Mode of inhibition [2] | kcat (rate constant ES → E + P) [2] | Inhibitory activity in words [3] | Mode of inhibition [1] | kcat (rate constant ES → E + P) [1] | Mode of inhibition [4] | kcat (rate constant ES → E + P) [4] | Kis (inhibitor dissociation constant, ES + I ⇌ ESI) [4] | Kis (inhibitor dissociation constant, ES + I ⇌ ESI) [1] | Kis (inhibitor dissociation constant, ES + I ⇌ ESI) [2] | Mode of inhibition [3] | kcat (rate constant ES → E + P) [3] | Kis (inhibitor dissociation constant, ES + I ⇌ ESI) [3]
O=c1[nH]c(/C=C/c2cccc(O)c2)c([N+](=O)[O-])c(=O)[nH]1 [Compound 15, (E)-6-(3-Hydroxystyryl)-5-nitropyrimidine-2,4(1H,3H)-dione] | completely ineffective | Competitive | 0.00383 ± 0.00017 s⁻¹ | completely ineffective | – | – | – | – | – | – | – | – | – | –
O=c1[nH]c(/C=C/c2ccccc2O)c([N+](=O)[O-])c(=O)[nH]1 [Compound 9, (E)-5-Nitro-6-(2-hydroxystyryl)pyrimidine-2,4(1H,3H)-dione] | – | Competitive | 0.00433 ± 0.00017 s⁻¹ | – | Competitive | 0.023 ± 0.0005 s⁻¹ | Uncompetitive | 0.0683 ± 0.0033 s⁻¹ | 917 ± 212 µM | – | – | – | – | –
O=c1[nH]c(/C=C/c2ccc[nH]2)c([N+](=O)[O-])c(=O)[nH]1 [Compound 40, (E)-5-Nitro-6-[2-(1H-pyrrol-2-yl)vinyl]pyrimidine-2,4(1H,3H)-dione] | – | Partial | 0.00633 ± 0.00017 s⁻¹ | – | Mixed | 0.0173 ± 0.00017 s⁻¹ | – | – | – | 248 ± 67 µM | 42 ± 12 µM | Mixed | 0.06 ± 0.0017 s⁻¹ | 806 ± 401 µM
O=c1[nH]c(/C=C/c2ccc3ccccc3c2)c([N+](=O)[O-])c(=O)[nH]1 [Compound 43, (E)-6-(2-(Naphthalene-2-yl)vinyl)-5-nitropyrimidine-2,4(1H,3H)-dione] | – | Partial | 0.00617 ± 0.00017 s⁻¹ | – | Mixed | 0.043 ± 0.00033 s⁻¹ | – | – | – | 476 ± 89 µM | 72 ± 31 µM | Uncompetitive | 0.0553 ± 0.00083 s⁻¹ | 270 ± 32 µM
O=c1[nH]c(/C=C/c2ccc(O)cc2)c([N+](=O)[O-])c(=O)[nH]1 [Compound 16, (E)-6-(4-Hydroxystyryl)-5-nitropyrimidine-2,4(1H,3H)-dione] | completely ineffective | Partial | 0.00717 ± 0.00017 s⁻¹ | completely ineffective | – | – | – | – | – | – | 17 ± 5 µM | – | – | –
O=c1[nH]c(/C=C/c2cc(O)ccc2O)c([N+](=O)[O-])c(=O)[nH]1 [Compound 18, (E)-6-(2,5-Dihydroxystyryl)-5-nitropyrimidine-2,4(1H,3H)-dione] | – | Uncompetitive | 0.00283 ± 0.00017 s⁻¹ | – | Uncompetitive | 0.0245 ± 0.00067 s⁻¹ | Uncompetitive | 0.00367 ± 0.00033 s⁻¹ | 398 ± 156 µM | 53 ± 5 µM | 420 ± 168 µM | Uncompetitive | 0.085 ± 0.0017 s⁻¹ | 122 ± 10 µM
O=c1[nH]c(/C=C/c2cc([N+](=O)[O-])ccc2O)c([N+](=O)[O-])c(=O)[nH]1 [Compound 32, (E)-6-(2-Hydroxy-5-nitrostyryl)-5-nitropyrimidine-2,4(1H,3H)-dione] | – | Competitive | 0.0107 ± 0.0005 s⁻¹ | – | – | – | Uncompetitive | 0.00783 ± 0.00017 s⁻¹ | 800 ± 107 µM | – | – | – | – | –
O=c1[nH]c(/C=C/C2C=Nc3ccccc32)c([N+](=O)[O-])c(=O)[nH]1 (centres unmarked) [Compound 44, (E)-6-(2-(3H-Indol-3-yl)vinyl)-5-nitropyrimidine-2,4(1H,3H)-dione] | – | Mixed | 0.00667 ± 0.00017 s⁻¹ | – | Mixed | 0.0327 ± 0.00067 s⁻¹ | – | – | – | 376 ± 127 µM | 488 ± 233 µM | Uncompetitive | 0.0567 ± 0.00067 s⁻¹ | 426 ± 64 µM
O=c1[nH]c(CCc2ccc(O)cc2)c([N+](=O)[O-])c(=O)[nH]1 [Compound 48, 6-(4-Hydroxy-2-phenethyl)-5-nitropyrimidine-2,4(1H,3H)-dione] | – | – | – | – | – | – | Uncompetitive | 0.00567 ± 0.00017 s⁻¹ | 449 ± 45 µM | – | – | – | – | –
O=c1[nH]c(/C=C/c2cccc(O)c2O)c([N+](=O)[O-])c(=O)[nH]1 [Compound 17, (E)-6-(2,3-Dihydroxystyryl)-5-nitropyrimidine-2,4(1H,3H)-dione] | – | Mixed | 0.006 ± 0.00017 s⁻¹ | – | Partial | 0.0262 ± 0.00033 s⁻¹ | Partial | 0.0045 ± 0.00033 s⁻¹ | 37 ± 16 µM | 16 ± 3 µM | 81 ± 29 µM | Mixed | 0.085 ± 0.0017 s⁻¹ | 26 ± 4 µM
O=c1[nH]c(/C=C/c2ccc(F)cc2)c([N+](=O)[O-])c(=O)[nH]1 [Compound 29, (E)-6-(4-Fluorostyryl)-5-nitropyrimidine-2,4(1H,3H)-dione] | – | Mixed | 0.0065 ± 0.00033 s⁻¹ | – | – | – | Mixed | 0.00667 ± 0.00017 s⁻¹ | 776 ± 294 µM | – | 25 ± 8 µM | – | – | –
O=c1[nH]c(/C=C/c2ccc([N+](=O)[O-])c(O)c2)c([N+](=O)[O-])c(=O)[nH]1 [Compound 35, (E)-6-(3-Hydroxy-4-nitrostyryl)-5-nitropyrimidine-2,4(1H,3H)-dione] | – | Competitive | 0.00633 ± 0.00017 s⁻¹ | – | Mixed | 0.0188 ± 0.00017 s⁻¹ | – | – | – | 497 ± 159 µM | – | Uncompetitive | 0.0717 ± 0.0017 s⁻¹ | 224 ± 22 µM
